# Test system: MDA-MB-436 cells
# Assay: CEL-Dox cytotoxicity, Dojindo cell viability assay (Example 1)
# Type: cell-based, human
# Details: 6 h treatment, grown 48 h, CEL-Dox at 1.5:1
# Description: The cytotoxicity of CEL-Dox on TNBC cells were evaluated using a cell viability assay. 5×10^3 cells (MDA-MB-231 and MDA-MB-436) were seeded in each well of a 96 well plate and incubated for 24 h. Cells were treated with (1) PBS, (2) Free Dox, (3) non-specific IgG-conjugated, Dox-encapsulating liposomes (IgG-Dox-LPs), (4) ICAM-1 antibody-conjugated, Dox-encapsulating liposomes (ICAM-1-Dox-LP), (5) EGFR antibody-conjugated, Dox-encapsulating liposomes (EGFR-Dox-LP), and (6) Dox-encapsulating CELs at optimal ICAM-1/EGFR antibody ratios (4.2/1 for MDA-MB-231 cells, and 1.5/1 for MDA-MB-436 cells) at the final liposome concentration of 1 μM lipids per 10^6 cells for 6 hours. Cells were rinsed three times with PBS and grown for 48 hours. Cell viability was determined by a Dojindo cell counting kit using the protocol from the manufacturer (Rockville, Md.).
structure (smiles),measurement,value
"COc1cccc2c1C(=O)c1c(O)c3c(c(O)c1C2=O)C[C@@](O)(C(=O)CO)C[C@@H]3O[C@H]1C[C@H](N)[C@H](O)[C@H](C)O1 [free Dox, doxorubicin]",half maximal inhibitory concentration (IC50),0.0355 mg/L
